Reference: patent US8168651B2, “Protein kinase modulators” (Cylene Pharmaceuticals, Inc., priority 2008, dated 2012)

Key:
Experiment in all cases: Standardized radiometric kinase assays, percentage of activity at 0.5 μM;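 note: Read-out is ³³P-labelled substrate protein phosphorylated by each kinase, captured on filters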
[1] = molecular target: each individual kinase of the panel (Homo sapiens, UniProt Q13177); details: for % Activity: PAK2(h)
[2] = molecular target: each individual kinase of the panel (Homo sapiens, UniProt Q13882)
[3] = molecular target: each individual kinase of the panel (Homo sapiens, UniProt P14616)
[4] = molecular target: each individual kinase of the panel (Homo sapiens, UniProt P08069); details: for % Activity: IGF-1R(h)
[5] = molecular target: each individual kinase of the panel (Homo sapiens, UniProt Q9UM73)
[6] = molecular target: each individual kinase of the panel (Homo sapiens, UniProt P07949); details: for % Activity: Ret(h)
[7] = molecular target: each individual kinase of the panel (Homo sapiens, UniProt P50750); details: for % Activity: CDK9/cyclin T1 (h)
[8] = molecular target: each individual kinase of the panel (Homo sapiens, UniProt P35968); details: for % Activity: KDR(h)
[9] = molecular target: each individual kinase of the panel (Mus musculus, UniProt P16277)
[10] = molecular target: each individual kinase of the panel (Homo sapiens, UniProt O15530); details: for % Activity: PDK1(h)
[11] = molecular target: each individual kinase of the panel (Homo sapiens, UniProt P00519); details: for % Activity: Abl(h)
[12] = test system: each individual kinase of the panel; details: for % Activity: MAPK1(h)
[13] = molecular target: each individual kinase of the panel (Homo sapiens, UniProt P10721, V654A)
[14] = molecular target: each individual kinase of the panel (Homo sapiens, UniProt Q02750); details: for % Activity: MEK1(h)
[15] = molecular target: each individual kinase of the panel (Homo sapiens, UniProt P50613); details: for % Activity: CDK7/cyclinH/MAT1(h)
[16] = molecular target: each individual kinase of the panel (Homo sapiens, UniProt Q12866); details: for % Activity: Mer(h)
[17] = molecular target: each individual kinase of the panel (Homo sapiens, UniProt Q8IW41); details: for % Activity: PRAK(h)
[18] = molecular target: each individual kinase of the panel (Homo sapiens, UniProt Q96SB4); details: for % Activity: SRPK1(h)
[19] = molecular target: each individual kinase of the panel (Homo sapiens, UniProt P51955)
[20] = molecular target: each individual kinase of the panel (Homo sapiens, UniProt Q9UBE8)
[21] = molecular target: each individual kinase of the panel (Homo sapiens, UniProt P08581); details: for % Activity: Met(h)
[22] = molecular target: each individual kinase of the panel (Homo sapiens, UniProt Q9NWZ3); details: for % Activity: IRAK4(h)
[23] = molecular target: each individual kinase of the panel (Homo sapiens, UniProt Q8TDC3)
[24] = molecular target: each individual kinase of the panel (Homo sapiens, UniProt P51813)
[25] = molecular target: each individual kinase of the panel (Homo sapiens, UniProt O60285); details: for % Activity: ARK5(h)
[26] = molecular target: each individual kinase of the panel (Homo sapiens, UniProt P08631); details: for % Activity: Hck(h)
[27] = molecular target: each individual kinase of the panel (Homo sapiens, UniProt P68400); details: for % Activity: CK2(h)
[28] = molecular target: each individual kinase of the panel (Homo sapiens, UniProt Q9HBH9); details: for % Activity: Mnk2(h)
[29] = molecular target: each individual kinase of the panel (Homo sapiens, UniProt Q9H2X6); details: for % Activity: HIPK2(h)
[30] = molecular target: each individual kinase of the panel (Homo sapiens, UniProt P53350); details: Plk1(h)

Sequence of each individual kinase of the panel (Homo sapiens, UniProt P50613) (P50613 2-346 limits assumed): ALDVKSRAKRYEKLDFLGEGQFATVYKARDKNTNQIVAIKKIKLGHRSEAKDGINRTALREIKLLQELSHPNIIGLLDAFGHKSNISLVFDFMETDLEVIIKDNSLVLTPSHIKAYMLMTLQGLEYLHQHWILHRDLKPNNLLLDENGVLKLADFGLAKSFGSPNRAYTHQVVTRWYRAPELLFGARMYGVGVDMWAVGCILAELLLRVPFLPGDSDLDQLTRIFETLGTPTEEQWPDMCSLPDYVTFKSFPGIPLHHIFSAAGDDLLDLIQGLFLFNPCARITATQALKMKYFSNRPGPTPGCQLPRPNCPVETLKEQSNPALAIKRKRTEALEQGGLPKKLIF
Sequence of each individual kinase of the panel (Homo sapiens, UniProt Q9UM73) (Q9UM73 19-1620 limits assumed): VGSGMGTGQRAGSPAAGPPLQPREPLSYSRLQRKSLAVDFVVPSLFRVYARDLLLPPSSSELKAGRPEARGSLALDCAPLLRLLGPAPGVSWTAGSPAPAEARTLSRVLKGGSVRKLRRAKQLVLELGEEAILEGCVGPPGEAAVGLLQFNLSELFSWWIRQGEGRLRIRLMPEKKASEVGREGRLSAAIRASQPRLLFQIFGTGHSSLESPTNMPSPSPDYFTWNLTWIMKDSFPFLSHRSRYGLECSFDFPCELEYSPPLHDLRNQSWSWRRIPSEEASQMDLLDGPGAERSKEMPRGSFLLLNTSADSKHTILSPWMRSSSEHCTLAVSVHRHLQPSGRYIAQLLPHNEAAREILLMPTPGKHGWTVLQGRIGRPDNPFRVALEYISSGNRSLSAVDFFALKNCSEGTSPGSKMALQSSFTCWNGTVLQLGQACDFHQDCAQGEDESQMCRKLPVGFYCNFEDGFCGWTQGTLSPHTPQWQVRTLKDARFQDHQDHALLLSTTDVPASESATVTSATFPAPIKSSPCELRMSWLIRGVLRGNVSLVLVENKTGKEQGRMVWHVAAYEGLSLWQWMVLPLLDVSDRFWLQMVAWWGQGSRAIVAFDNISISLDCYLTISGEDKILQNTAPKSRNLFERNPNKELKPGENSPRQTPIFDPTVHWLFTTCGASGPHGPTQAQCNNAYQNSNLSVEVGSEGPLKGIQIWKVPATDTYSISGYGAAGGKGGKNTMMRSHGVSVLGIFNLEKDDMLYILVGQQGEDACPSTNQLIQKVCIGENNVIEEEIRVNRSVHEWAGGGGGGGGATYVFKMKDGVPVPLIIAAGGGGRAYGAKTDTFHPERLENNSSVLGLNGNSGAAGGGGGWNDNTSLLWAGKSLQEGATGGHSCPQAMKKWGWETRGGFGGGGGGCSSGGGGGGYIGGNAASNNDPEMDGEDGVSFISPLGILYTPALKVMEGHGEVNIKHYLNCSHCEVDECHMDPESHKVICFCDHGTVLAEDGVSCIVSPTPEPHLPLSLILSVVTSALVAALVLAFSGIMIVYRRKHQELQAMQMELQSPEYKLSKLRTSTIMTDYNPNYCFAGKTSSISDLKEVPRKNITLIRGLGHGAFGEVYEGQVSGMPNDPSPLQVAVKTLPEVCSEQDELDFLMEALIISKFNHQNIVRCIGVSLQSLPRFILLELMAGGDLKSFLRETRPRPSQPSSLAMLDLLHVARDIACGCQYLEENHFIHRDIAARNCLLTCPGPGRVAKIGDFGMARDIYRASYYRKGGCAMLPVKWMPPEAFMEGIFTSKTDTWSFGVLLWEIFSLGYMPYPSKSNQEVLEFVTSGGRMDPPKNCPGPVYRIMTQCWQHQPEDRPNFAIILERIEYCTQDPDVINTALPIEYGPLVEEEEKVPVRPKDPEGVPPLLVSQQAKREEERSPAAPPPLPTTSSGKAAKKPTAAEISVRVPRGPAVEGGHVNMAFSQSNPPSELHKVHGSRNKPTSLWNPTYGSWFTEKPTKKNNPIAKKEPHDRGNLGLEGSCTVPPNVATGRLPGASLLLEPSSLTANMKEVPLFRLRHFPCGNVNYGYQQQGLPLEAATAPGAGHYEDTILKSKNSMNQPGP
Sequence of each individual kinase of the panel (Homo sapiens, UniProt P08069) (P08069 31-736 limits assumed): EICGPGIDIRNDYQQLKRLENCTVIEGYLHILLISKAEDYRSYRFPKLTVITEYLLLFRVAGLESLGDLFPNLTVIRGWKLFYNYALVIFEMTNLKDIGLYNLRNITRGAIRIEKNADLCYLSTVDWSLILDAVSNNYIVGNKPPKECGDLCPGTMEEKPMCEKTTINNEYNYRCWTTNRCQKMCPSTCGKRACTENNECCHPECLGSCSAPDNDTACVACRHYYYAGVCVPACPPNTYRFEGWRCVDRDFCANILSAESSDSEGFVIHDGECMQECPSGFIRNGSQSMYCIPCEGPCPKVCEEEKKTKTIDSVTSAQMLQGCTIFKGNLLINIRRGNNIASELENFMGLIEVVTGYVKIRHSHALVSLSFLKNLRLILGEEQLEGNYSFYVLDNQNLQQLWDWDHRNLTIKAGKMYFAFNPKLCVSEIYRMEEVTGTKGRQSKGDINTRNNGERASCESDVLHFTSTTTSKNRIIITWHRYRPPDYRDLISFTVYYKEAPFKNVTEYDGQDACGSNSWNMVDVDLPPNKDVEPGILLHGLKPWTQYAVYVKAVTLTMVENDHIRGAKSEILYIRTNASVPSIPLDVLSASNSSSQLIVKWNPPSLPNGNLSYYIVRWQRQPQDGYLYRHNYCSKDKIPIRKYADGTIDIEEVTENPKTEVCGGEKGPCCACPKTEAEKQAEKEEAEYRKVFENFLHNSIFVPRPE
Sequence of each individual kinase of the panel (Homo sapiens, UniProt P08069) (P08069 741-1367 limits assumed): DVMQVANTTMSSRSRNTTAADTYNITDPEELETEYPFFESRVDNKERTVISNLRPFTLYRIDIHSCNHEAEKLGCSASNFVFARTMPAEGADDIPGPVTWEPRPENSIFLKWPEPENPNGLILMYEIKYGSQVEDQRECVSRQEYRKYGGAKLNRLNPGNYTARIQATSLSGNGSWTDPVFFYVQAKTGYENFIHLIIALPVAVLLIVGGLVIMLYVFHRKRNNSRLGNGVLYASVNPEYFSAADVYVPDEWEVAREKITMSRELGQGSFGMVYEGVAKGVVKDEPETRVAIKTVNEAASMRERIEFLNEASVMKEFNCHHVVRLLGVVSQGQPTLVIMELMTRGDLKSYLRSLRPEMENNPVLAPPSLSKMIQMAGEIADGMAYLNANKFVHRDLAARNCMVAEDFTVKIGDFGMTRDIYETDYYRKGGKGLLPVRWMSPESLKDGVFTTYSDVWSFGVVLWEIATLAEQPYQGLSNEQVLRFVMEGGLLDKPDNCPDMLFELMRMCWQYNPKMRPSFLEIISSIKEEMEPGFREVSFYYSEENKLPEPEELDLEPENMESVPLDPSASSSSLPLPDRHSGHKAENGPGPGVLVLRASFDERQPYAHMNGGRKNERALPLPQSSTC
Sequence of each individual kinase of the panel (Homo sapiens, UniProt Q13177) (Q13177 2-524 limits assumed): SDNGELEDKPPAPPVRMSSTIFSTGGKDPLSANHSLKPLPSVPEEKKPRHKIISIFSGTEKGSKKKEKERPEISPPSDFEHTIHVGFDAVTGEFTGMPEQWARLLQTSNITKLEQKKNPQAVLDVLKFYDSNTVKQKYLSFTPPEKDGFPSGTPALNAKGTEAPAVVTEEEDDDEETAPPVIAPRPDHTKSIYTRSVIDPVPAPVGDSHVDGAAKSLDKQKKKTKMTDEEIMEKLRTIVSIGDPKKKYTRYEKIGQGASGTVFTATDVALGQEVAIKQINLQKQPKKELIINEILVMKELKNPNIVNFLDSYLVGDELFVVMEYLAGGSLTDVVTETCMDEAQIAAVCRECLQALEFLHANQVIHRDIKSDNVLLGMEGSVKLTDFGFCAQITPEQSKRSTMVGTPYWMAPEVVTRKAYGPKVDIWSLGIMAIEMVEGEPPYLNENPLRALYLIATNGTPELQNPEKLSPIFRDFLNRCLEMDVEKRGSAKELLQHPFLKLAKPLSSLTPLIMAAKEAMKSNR
Sequence of each individual kinase of the panel (Homo sapiens, UniProt P07949) (P07949 29-1114 limits assumed): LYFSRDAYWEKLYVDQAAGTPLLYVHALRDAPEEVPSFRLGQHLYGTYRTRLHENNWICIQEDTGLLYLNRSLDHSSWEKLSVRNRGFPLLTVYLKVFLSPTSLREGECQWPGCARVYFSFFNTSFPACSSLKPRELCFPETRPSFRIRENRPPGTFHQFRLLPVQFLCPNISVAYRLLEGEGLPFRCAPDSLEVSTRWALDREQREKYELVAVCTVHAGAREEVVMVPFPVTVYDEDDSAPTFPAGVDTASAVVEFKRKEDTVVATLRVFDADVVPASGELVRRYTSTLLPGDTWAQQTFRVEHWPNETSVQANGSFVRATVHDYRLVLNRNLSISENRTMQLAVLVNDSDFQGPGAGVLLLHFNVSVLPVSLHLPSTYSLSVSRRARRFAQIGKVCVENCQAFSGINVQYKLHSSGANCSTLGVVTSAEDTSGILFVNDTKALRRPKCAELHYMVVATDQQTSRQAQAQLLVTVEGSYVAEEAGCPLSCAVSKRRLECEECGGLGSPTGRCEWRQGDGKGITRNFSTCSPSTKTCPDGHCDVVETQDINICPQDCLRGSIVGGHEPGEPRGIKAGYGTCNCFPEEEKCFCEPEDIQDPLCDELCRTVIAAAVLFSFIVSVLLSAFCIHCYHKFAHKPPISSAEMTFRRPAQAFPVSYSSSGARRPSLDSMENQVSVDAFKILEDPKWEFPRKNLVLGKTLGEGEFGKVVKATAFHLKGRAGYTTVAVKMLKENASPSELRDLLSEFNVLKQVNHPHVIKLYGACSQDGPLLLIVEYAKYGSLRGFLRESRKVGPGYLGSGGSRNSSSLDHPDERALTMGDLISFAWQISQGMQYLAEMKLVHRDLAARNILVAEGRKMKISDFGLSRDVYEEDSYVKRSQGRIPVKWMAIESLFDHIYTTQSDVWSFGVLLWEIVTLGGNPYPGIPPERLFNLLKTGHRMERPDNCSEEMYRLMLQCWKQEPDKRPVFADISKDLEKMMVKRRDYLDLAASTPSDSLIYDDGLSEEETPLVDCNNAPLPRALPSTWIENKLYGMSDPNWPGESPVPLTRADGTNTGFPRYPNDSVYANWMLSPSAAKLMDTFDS

Structure (SMILES): C#Cc1cccc(Nc2nc3cc(C(=O)O)ccc3c3cncnc23)c1 [drawing 1135]
- PAK2 percentage of activity [1]: −12%
- BRK percentage of activity [2]: −10%
- INSRR percentage of activity [3]: −21%
- IGF1R percentage of activity [4]: 27%
- ALK percentage of activity [5]: −12%
- RET percentage of activity [6]: 14%
- CDK9/cyclin T1 percentage of activity [7]: 0%
- VEGFR2 percentage of activity [8]: 33%
- Blk(m) percentage of activity [9]: 0%
- PDK1 percentage of activity [10]: −10%
- ABL1 percentage of activity [11]: 9%
- MLCK percentage of activity [12]: −3%
- PDGFRB (V561D) percentage of activity [12]: −4%
- PRKCB2 percentage of activity [12]: 1%
- cKit(V654A) percentage of activity [13]: 8%
- MEK1 percentage of activity [14]: −36%
- CDK7/cyclinH/MAT1 percentage of activity [15]: 23%
- MER percentage of activity [16]: 54%
- MAPKAPK5 percentage of activity [17]: 7%
- SRPK1 percentage of activity [18]: 34%
- NEK2 percentage of activity [19]: 23%
- NLK percentage of activity [20]: 3%
- MET percentage of activity [21]: −22%
- IRAK4 percentage of activity [22]: −19%
- BRSK1 percentage of activity [23]: −1%
- BMX percentage of activity [24]: −18%
- ARK5 percentage of activity [25]: −8%
- HCK percentage of activity [26]: −11%

Structure (SMILES): NC(=O)c1ccc2c(c1)nc(Nc1cccc(Cl)c1)c1ccncc12 [drawing 1138]
- PAK2 percentage of activity [1]: 4%
- IGF1R percentage of activity [4]: −23%
- ALK percentage of activity [5]: −2%
- CK2 alpha 1 percentage of activity [27]: 84%
- CDK9/cyclin T1 percentage of activity [7]: 45%
- VEGFR2 percentage of activity [8]: 15%
- PDK1 percentage of activity [10]: 7%
- ABL1 percentage of activity [11]: 14%
- Mnk2 percentage of activity [28]: 32%
- MEK1 percentage of activity [14]: 8%
- CDK7/cyclinH/MAT1 percentage of activity [15]: 57%
- MER percentage of activity [16]: 62%
- MAPKAPK5 percentage of activity [17]: 22%
- SRPK1 percentage of activity [18]: 7%
- NEK2 percentage of activity [19]: 13%
- MET percentage of activity [21]: −6%
- IRAK4 percentage of activity [22]: 12%
- HIPK2 percentage of activity [29]: 89%
- ARK5 percentage of activity [25]: 5%
- HCK percentage of activity [26]: 28%

Structure (SMILES): NC(=O)c1cccc2c1nc(Nc1cccc(Cl)c1)c1ccncc12 [B]
- % Activity [1]: 108%
- % Activity [4]: 90%
- % Activity ([5]; ALK(h)): 100%
- % Activity [6]: 73%
- % Activity [27]: 48%
- % Activity [7]: 18%
- % Activity [8]: 75%
- % Activity [10]: 88%
- % Activity [30]: 76%
- % Activity [11]: 92%
- % Activity [12]: 86%
- % Activity [28]: 33%
- % Activity [14]: 88%
- % Activity [15]: 17%
- % Activity [16]: 39%
- % Activity [17]: 84%
- % Activity [18]: 91%
- % Activity ([19]; NEK2(h)): 95%
- % Activity [21]: 96%
- % Activity [22]: 81%
- % Activity [29]: 2%
- % Activity [25]: 98%
- % Activity [26]: 62%

Structure (SMILES): C#Cc1cccc(Nc2nc3cc(C(=O)O)ccc3c3cnccc23)c1 [drawing 1137]
- PAK2 percentage of activity [1]: 1%
- BRK percentage of activity [2]: 18%
- IGF1R percentage of activity [4]: −9%
- ALK percentage of activity [5]: −20%
- RET percentage of activity [6]: 35%
- CDK9/cyclin T1 percentage of activity [7]: 27%
- VEGFR2 percentage of activity [8]: 55%
- Blk(m) percentage of activity [9]: 33%
- PDK1 percentage of activity [10]: 8%
- ABL1 percentage of activity [11]: 20%
- Mnk2 percentage of activity [28]: −2%
- MEK1 percentage of activity [14]: 4%
- CDK7/cyclinH/MAT1 percentage of activity [15]: 36%
- MER percentage of activity [16]: 86%
- MAPKAPK5 percentage of activity [17]: 22%
- SRPK1 percentage of activity [18]: 63%
- NEK2 percentage of activity [19]: 73%
- MET percentage of activity [21]: −16%
- IRAK4 percentage of activity [22]: 4%
- HIPK2 percentage of activity [29]: 96%
- BMX percentage of activity [24]: 8%
- ARK5 percentage of activity [25]: 14%
- HCK percentage of activity [26]: 26%

Structure (SMILES): Clc1ccccc1Nc1nc2c(-c3nnc[nH]3)cccc2c2cnccc12 [A]
- % Activity [1]: 106%
- % Activity [4]: 101%
- % Activity [6]: 43%
- % Activity [27]: 58%
- % Activity [7]: 37%
- % Activity [8]: 43%
- % Activity [10]: 101%
- % Activity [30]: 96%
- % Activity [11]: 87%
- % Activity [12]: 77%
- % Activity [28]: 54%
- % Activity [14]: 72%
- % Activity [15]: 50%
- % Activity [16]: 38%
- % Activity [17]: 97%
- % Activity [18]: 107%
- % Activity [21]: 22%
- % Activity [22]: 12%
- % Activity [29]: −1%
- % Activity [25]: 39%
- % Activity [26]: 61%
